Patent US7737155B2, “Nitrogen-containing heterocyclic compounds and methods of use thereof” (Schering Corporation, priority 2005, dated 2010)
Like-named read-outs stand apart in the source and are kept apart here.

Biological target: recombinant human nicotinic acid receptor (NAR) (Homo sapiens, UniProt Q8TDS4)
Experiment: Nicotinic Acid Receptor Assay: inhibition of forskolin-stimulated cAMP accumulation in CHO cells (MesoScale Discovery cAMP kit)
Type: cell-based
Details: CHO cells expressing recombinant human NAR
Procedure, shortened: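 Compounds were diluted in PBS containing 6 μM forskolin and incubated with cells for 30 min at room temperature. cAMP was quantified by the MesoScale kit against an on-plate standard curve.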

[1] = forskolin-stimulated cAMP, read-out: NA EC50 camp
[2] = inhibition of forskolin-stimulated cAMP accumulation, read-out: NA EC50 camp
[3] = NA EC50 camp (nM), forskolin-stimulated cAMP

recombinant human nicotinic acid receptor (NAR), sequence (Q8TDS4 whole entry): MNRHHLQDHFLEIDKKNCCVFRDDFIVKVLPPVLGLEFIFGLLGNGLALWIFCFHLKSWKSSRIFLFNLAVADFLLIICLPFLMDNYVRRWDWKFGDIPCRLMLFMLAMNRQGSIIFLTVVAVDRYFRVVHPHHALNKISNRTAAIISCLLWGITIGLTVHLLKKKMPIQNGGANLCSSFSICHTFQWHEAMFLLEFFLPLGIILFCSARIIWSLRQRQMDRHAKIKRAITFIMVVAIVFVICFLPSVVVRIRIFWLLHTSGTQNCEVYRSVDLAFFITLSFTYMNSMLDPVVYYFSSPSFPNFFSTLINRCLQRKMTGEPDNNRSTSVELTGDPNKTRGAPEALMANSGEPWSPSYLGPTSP

Row | SMILES | EC50 [1] [nM] | other results
1 | CCn1c(=O)[nH]c2oc(=O)cc(C)c2c1=O [Compound 289] | > 1000 | –
2 | CCCCc1cc(=O)oc2nc(OCCOC)[nH]c(=O)c12 [Compound 660] | > 1000 | –
3 | O=c1[nH]c(=O)c2c(Cc3cccc4ccccc34)cc(=O)oc2[nH]1 [Compound 265] | > 1000 | –
4 | CCc1cc(=O)oc2nc(OC3CCSCC3)[nH]c(=O)c12 [Compound 605] | > 1000 | –
5 | CCCCc1cc(=O)oc2[nH]c(=O)nc(OCC(F)(F)F)c12 [Compound 829] | – | EC50 [2]: 882 nM
6 | CCc1cc(=O)oc2nc(OCc3sccc3-n3cccc3)[nH]c(=O)c12 [Compound 533] | > 1000 | –
7 | O=c1[nH]c(=O)c2c3c(c(=O)oc2[nH]1)CCCCCC3 [Compound 211] | > 1000 | –
8 | O=c1[nH]c(=O)c2c(CCCCC(F)(F)F)cc(=O)oc2[nH]1 [Compound 112] | – | EC50 [2]: 14.4 nM
9 | CCc1cc(=O)oc2nc(OCc3cnoc3C)[nH]c(=O)c12 [Compound 668] | > 1000 | –
10 | CCc1cc(=O)oc2nc(OCC3CCCCO3)[nH]c(=O)c12 (stereo not shown) [Compound 593] | > 1000 | –
11 | CCc1cc(=O)oc2nc(OCCN3CCCC3)[nH]c(=O)c12 [Compound 579] | > 1000 | –
12 | CCOC(=O)Cn1cc(CCCc2cc(=O)oc3[nH]c(=O)[nH]c(=O)c23)nn1 [Compound 250] | > 1000 | –
13 | CCCCc1c(-c2ccc(C#N)cc2)c(=O)oc2[nH]c(=O)[nH]c(=O)c12 [Compound 709] | > 1000 | –
14 | CCc1cc(=O)oc2nc(OCc3cc(-c4ccccc4)oc3C)[nH]c(=O)c12 [Compound 542] | > 1000 | –
15 | COC(C)(C)CCc1cc(=O)oc2[nH]c(=O)[nH]c(=O)c12 [Compound 279] | > 1000 | –
16 | CCC(C)(C)Cc1cc(=O)oc2[nH]c(=O)[nH]c(=O)c12 [Compound 204] | > 1000 | –
17 | CCC#CCOc1nc2oc(=O)cc(CC)c2c(=O)[nH]1 [Compound 512] | – | EC50 [3]: 0.001 to 100 nM

Row | SMILES | EC50 [1] [nM] | other results
18 | O=c1cc(CCC2CCC2)c2c(=O)[nH]c(C(F)F)nc2o1 [Compound 748] | – | EC50 (NA EC50 camp, inhibition of forskolin-stimulated cAMP accumulation): 286 nM
19 | O=c1cc(CCC2CCCC2)c2c(=O)[nH]c(C(F)(F)F)nc2o1 [Compound 763] | – | EC50 [2]: 7730 nM
20 | CCCCc1cc(=O)oc2nc(C(F)(F)F)[nH]c(=O)c12 [Compound 764] | – | EC50 [2]: 8920 nM
21 | O=c1cc(CCC2CCCC2)c2c(=O)[nH]c(=O)n(C3CCC3)c2o1 [Compound 242] | > 1000 | –
22 | O=c1cc(CCCC2CC2)c2c(=O)n(C(F)F)c(=O)[nH]c2o1 [Compound 814] | – | EC50 [2]: 161 nM
23 | CCCC#CCOc1nc2oc(=O)cc(CC)c2c(=O)[nH]1 [Compound 557] | – | EC50 [3]: 0.001 to 100 nM
24 | CCc1cc(=O)oc2nc(OCCOc3ccc(Br)cc3)[nH]c(=O)c12 [Compound 600] | > 1000 | –
25 | CCc1cc(=O)oc2nc(OC(C)c3ccccc3F)[nH]c(=O)c12 (stereo not shown) [Compound 90] | – | EC50 [2]: 475 nM
26 | CCCCc1cc(=O)oc2c1c(=O)[nH]c(=O)n2CF [Compound 813] | – | EC50 [2]: 256 nM
27 | CCCCc1cc(=O)oc2[nH]c(=O)n(O)c(=O)c12 [Compound 806] | – | EC50 [2]: 256 nM
28 | CCCc1cc(=O)oc2[nH]c(=O)nc(OCCF)c12 [Compound 825] | – | EC50 [2]: 616 nM
29 | CC#CCCOc1nc2oc(=O)cc(CC)c2c(=O)[nH]1 [Compound 590] | – | EC50 [3]: 100 to 1000 nM
30 | CC(C)CCc1cc(=O)oc2[nH]c(=O)n(CC3CC3)c(=O)c12 [Compound 260] | > 1000 | –
31 | O=c1[nH]c(=O)c2c(CCC3CCCCC3)cc(=O)oc2[nH]1 [Compound 124] | – | EC50 [2]: 78.5 nM
32 | O=c1[nH]c(=O)c2c(CC3Cc4ccccc4C3)cc(=O)oc2[nH]1 [Compound 202] | 100 to 1000 | –
33 | O=c1cc(Cc2ccccc2)c2c(=O)[nH]c(OCc3ccccc3F)nc2o1 [Compound 616] | 100 to 1000 | –
34 | CCCCc1cc(=O)oc2c1c(=O)[nH]c(=O)n2OCc1ccccc1 [Compound 798] | – | EC50 [2]: > 10000 nM

The next lines start with results.

Row | EC50 [1] [nM] | SMILES | other results
35 | 100 to 1000 | CCc1cc(=O)oc2nc(OCc3ccccc3-c3ccc(CO)cc3)[nH]c(=O)c12 [Compound 548] | –
36 | 100 to 1000 | O=c1[nH]c(=O)c2c(CCCc3cc(-c4cccc(C(F)(F)F)c4)no3)cc(=O)oc2[nH]1 [Compound 249] | –
37 | 0.001 to 100 | O=c1[nH]c(=O)c2c(CCCC3CCC3)cc(=O)oc2[nH]1 [Compound 286] | –
38 | 0.001 to 100 | CSCCCc1cc(=O)oc2[nH]c(=O)[nH]c(=O)c12 [Compound 225] | –
39 | 100 to 1000 | CCc1cc(=O)oc2nc(OCc3ccccc3-c3ccc(CO[Si](C)(C)C(C)(C)C)cc3)[nH]c(=O)c12 [Compound 651] | –
40 | 100 to 1000 | O=c1[nH]c(=O)c2c(C3CCCCC3)cc(=O)oc2[nH]1 [Compound 212] | –
41 | 100 to 1000 | CCc1cc(=O)oc2nc(OCc3ccc4ccccc4n3)[nH]c(=O)c12 [Compound 527] | –
42 | 100 to 1000 | CCc1cc(=O)oc2nc(OCc3cc(C)nn3CC)[nH]c(=O)c12 [Compound 678] | –
43 | 100 to 1000 | CCc1cc(=O)oc2nc(OCc3ccc(-c4ccccn4)s3)[nH]c(=O)c12 [Compound 648] | –
44 | 100 to 1000 | CCc1cc(=O)oc2nc(OCc3cccc(-c4ccc(OC)nc4)c3)[nH]c(=O)c12 [Compound 562] | –
45 | 0.001 to 100 | CCCCc1cc(=O)oc2nc(OCC#CC(O)CC)[nH]c(=O)c12 (stereo not shown) [Compound 679] | –
46 | 0.001 to 100 | CCc1cc(=O)oc2nc(O[C@@H](C)c3ccc4ccccc4c3)[nH]c(=O)c12 [Compound 501] | –
47 | 100 to 1000 | CCc1cc(=O)oc2nc(OCc3ccc(-n4cccn4)cc3)[nH]c(=O)c12 [Compound 624] | –
48 | 100 to 1000 | CCOC(=O)NOc1nc2oc(=O)cc(CCC3CC3)c2c(=O)[nH]1 [Compound 696] | –
49 | 100 to 1000 | CCc1cc(=O)oc2nc(OCC#Cc3ccccc3)[nH]c(=O)c12 [Compound 522] | –
50 | 0.001 to 100 | O=c1[nH]c(=O)c2c(CC3CCC(F)(F)CC3)cc(=O)oc2[nH]1 [Compound 223] | EC50 [2]: 26.5 nM
51 | 100 to 1000 | CCc1cc(=O)oc2nc(OCC(C)(O)c3ccccc3)[nH]c(=O)c12 (stereo not shown) [Compound 599] | –
52 | 0.001 to 100 | CC(C)CCc1cc(=O)oc2[nH]c(=O)n(C3CCC3)c(=O)c12 [Compound 245] | –
53 | 100 to 1000 | O=c1cc(CCCc2cccs2)c2c(=O)n(C3CCC3)c(=O)[nH]c2o1 [Compound 281] | –
54 | 100 to 1000 | CCc1cc(=O)oc2nc(OCc3ccccc3-n3ccnc3C)[nH]c(=O)c12 [Compound 583] | –
55 | 100 to 1000 | CCc1cc(=O)oc2nc(OCc3ccc(-c4ccncc4)cc3F)[nH]c(=O)c12 [Compound 574] | –
56 | 100 to 1000 | CCn1c(=O)[nH]c2oc(=O)cc(CCC3CC3)c2c1=O [Compound 278] | –
57 | 0.001 to 100 | CCc1cc(=O)oc2nc(OCC#CCN(C)C)[nH]c(=O)c12 [Compound 641] | –
